In patent US20090175799A1, “COLORED OR COLORABLE TOPICAL COMPOSITION FOAM” (priority 2006, published 2009):

Description: In one or more embodiments, the foamable composition includes a potent solvent, in addition to or in place of one of the hydrophobic solvents, polar solvents or emollients of the composition. A potent solvent is a solvent other than mineral oil that solubilizes a specific active agent substantially better than a hydrocarbon solvent such as mineral oil or petrolatum.

solubility in mineral oil [%]	solubility in glycofurol	solubility in dimethyl isosorbide	solubility in polyethylene glycol 400 (PEG 400)	solubility in propylene glycol	SMILES
< 0.001	–	–	–	–	Cc1cnc(NC(=O)C2=C(O)c3ccccc3S(=O)(=O)N2C)s1 [Meloxicam]
< 0.01	more than 1%	–	–	–	CCCC(=O)O[C@]1(C(=O)CO)CC[C@H]2[C@@H]3CCC4=CC(=O)CC[C@]4(C)[C@H]3[C@@H](O)C[C@@]21C [Hydrocortisone butyrate]
< 0.001	–	–	–	–	CC(=O)[C@H]1CC[C@H]2[C@@H]3CCC4=CC(=O)CC[C@]4(C)[C@H]3CC[C@]12C [Progesterone]
< 0.01	more than 1%	more than 1%	more than 1%	more than 1%	C/C(=C\C(=O)OCCCCCCCCC(=O)O)C[C@@H]1OC[C@H](C[C@@H]2O[C@H]2[C@@H](C)[C@H](C)O)[C@@H](O)[C@H]1O [Mupirocin]
< 0.01	more than 1%	–	–	–	CCCCC(=O)O[C@]1(C(=O)CO)[C@@H](C)C[C@H]2[C@@H]3CCC4=CC(=O)C=C[C@]4(C)[C@@]3(F)[C@@H](O)C[C@@]21C [Betamethasone valerate]
< 0.01	–	more than 1%	–	–	Cc1ncc([N+](=O)[O-])n1CCO [Metronidazole]
< 0.01	more than 1%	more than 1%	–	more than 1%	CC(=O)N1CCN(c2ccc(OCC3COC(Cn4ccnc4)(c4ccc(Cl)cc4Cl)O3)cc2)CC1 (centres unmarked) [Ketoconazole]
